This passage reports IC50 results from BindingDB's records for patent US11034694 (Nimbus Saturn, 2021).

A word on the IC50: it is the point on the concentration scale where inhibition reaches its midpoint.

The target of the test is Mitogen-activated protein kinase kinase kinase kinase 1 (Homo sapiens, UniProt Q92918). Description: Biochemical Enzyme Assay. As for the experimental part:
HPK1 biochemical enzyme assay: HPK1 enzyme inhibition was measured using a microfluidic mobility shift assay. […] Test compounds were titrated in ten point curves (top final assay concentration 3 μM), and preincubated with enzyme/substrate mix for 30 min prior to initiation of the reaction by addition of ATP (1 mM final concentration) and substrate (1 μM final concentration; Carna Biosciences) diluted in assay buffer supplemented by MgCl2 (final assay concentration of 5 mM). Following 60 min incubation at RT, the reaction was terminated by addition of 60 μl/well termination buffer (Carna Biosciences) and signal determination using a Caliper EZ Reader (Perkin Elmer, UK).

Chain of Mitogen-activated protein kinase kinase kinase kinase 1 (Q92918 whole entry): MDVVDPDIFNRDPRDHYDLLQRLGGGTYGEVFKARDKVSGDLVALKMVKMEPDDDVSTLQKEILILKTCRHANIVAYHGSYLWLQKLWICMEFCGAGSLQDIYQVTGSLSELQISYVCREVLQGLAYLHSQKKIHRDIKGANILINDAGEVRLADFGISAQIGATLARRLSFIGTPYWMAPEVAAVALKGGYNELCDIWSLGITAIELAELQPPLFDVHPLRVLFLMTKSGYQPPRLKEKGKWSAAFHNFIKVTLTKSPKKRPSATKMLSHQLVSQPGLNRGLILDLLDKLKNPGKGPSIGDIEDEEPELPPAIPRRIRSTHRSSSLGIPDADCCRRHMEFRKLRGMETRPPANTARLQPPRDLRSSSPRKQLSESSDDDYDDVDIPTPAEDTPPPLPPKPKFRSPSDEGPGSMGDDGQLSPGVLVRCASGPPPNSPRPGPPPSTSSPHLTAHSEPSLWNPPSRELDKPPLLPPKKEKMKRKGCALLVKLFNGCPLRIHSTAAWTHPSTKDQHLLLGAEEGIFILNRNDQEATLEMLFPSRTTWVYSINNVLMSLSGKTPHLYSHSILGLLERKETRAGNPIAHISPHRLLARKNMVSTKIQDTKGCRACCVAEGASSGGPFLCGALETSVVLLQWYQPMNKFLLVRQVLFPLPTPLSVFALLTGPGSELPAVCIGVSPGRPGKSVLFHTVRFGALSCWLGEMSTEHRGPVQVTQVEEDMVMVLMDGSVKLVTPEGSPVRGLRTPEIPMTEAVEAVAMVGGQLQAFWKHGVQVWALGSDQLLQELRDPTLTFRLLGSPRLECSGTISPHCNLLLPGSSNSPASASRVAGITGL

The compound `Cn1ccc2c(-c3ncc(Nc4ccc(N5C[C@H]6COC[C@@H]5C6)cn4)c4c3CNC4=O)ccnc21` [US11034694, Compound I-309] returned an IC50 below 100 nM.
For the compound `CNC1CN(c2cccc(Cc3cnc(-c4ccnc5c4ccn5C)c4c3C(=O)NC4)n2)C1` [US11034694, Compound I-449], the IC50 is below 100 nM.
For the compound `Cc1ccn2c(-c3ccc(Nc4ccc(N5CCO[C@@H](CP)C5)cn4)c4c3CNC4=O)cnc2c1F` [US11034694, Compound I-460], the IC50 is below 100 nM.
